Laboratory results as given in publication PMC9029893 (International Journal of Molecular Sciences, 2022).

Assays:
Type in all cases: biochemical
[1] = system: human plasma (platelet poor plasma); assay: Basic coagulation tests: PT, INR, APTT, TT; settings: for TT: thrombin 3.0 UNIH/mL
Method: The blood was collected into vacuum tubes stuffed with 3.2% buffered sodium citrate. Platelet poor plasma (PPP) was obtained by centrifugation at 3000× g for 10 min at room temperature using a Micro 22R centrifuge (Hettich Zentrifugen, Tuttlingen, Germany). The obtained PPP was stored in small aliquots for up to one month at –30° C. Before each experiment, PPP was restored at 37 °C for 15 min. Once thawed, the PPP was not frozen again nor used for retesting.
The effects of biguanidines (1–5) on the basic coagulation parameters (PT, INR, APTT, and TT) were carried out using a CoagChrom-3003 coagulometer (Bio-Ksel, Grudziądz, Poland), according to the routine laboratory diagnostic procedure. The studies were performed in multiplicate (n = 4–7). The control samples containing distilled water and methanol (1:1) were also included.
The results are presented as mean ± standard deviation (SD). The methods were validated, and coefficients of variability for all experiments were calculated (PT: CV = 10.25%, APTT: CV = 8.55%, TT: CV = 4.87%). The reference values for each test are as follows: PT: 9.7–14.6 s; APTT: 26.7–40.0 s; TT: 14.0–18.0 s for 3.0 UNIH/mL of thrombin.

[2] = system: clot formation and fibrinolysis in human citrate plasma; assay: Clot formation and fibrinolysis test (CL-test)
Method: The effects of the […] on overall hemostasis potential by means of clot formation and fibrinolysis test (CL-test) were further tested based on the continuous measurement of the changes in optical transmittance over time, as described by Kostka et al. and Sikora et al.. These experiments were conducted using 470 µL of three-fold diluted human citrate plasma, 10 µL of the tested compounds, and 10 µL t-PA (final concentration in a sample 220 ng/mL). The clot formation was triggered by thrombin (10 µL, final concentration 0.5 IU/mL). The clot formation and lysis curves were determined at a wavelength of 405 nm with a spectrophotometer (Cecil CE 2021; London, UK) with circulating thermostated water (37 °C) and a Model 300 Electronic Stirrer (Rank Brothers Ltd., Cambridge, UK). The experiments were conducted in multiplicate (n = 5–7), and the results are presented as mean ± SD.
The received graphs were analyzed using dedicated software to determine the kinetic parameters of clot formation, stabilization, and fibrinolysis. The following parameters of clot formation were determined: Tt—thrombin time (s), Fmax—maximum clotting (%T), Tf—plasma clotting time (s), Fvo—initial plasma clotting velocity (%T/min), Sr—area under the clot formation curve (%Txmin). The parameters of the clot stabilization phase comprised Tc—clot stabilization time (s), Sc—area under the curve of stable clot formation (%Txmin). The parameters of fibrinolysis comprised Lmax—maximum lysis (%T), Tl—fibrinolysis time (s), Lvo—initial clot fibrinolysis velocity (%T/min), Sf—area under the fibrinolysis curve (%Txmin). Additionally, the overall potential of clot formation and fibrinolysis (CLAUC, (%Txmin)) and total time of the process of clot formation and fibrinolysis (T, (s)) were also estimated.

factor X = target: T1, factor X (Homo sapiens, UniProt P00742); assay: Factor X activity
T1 construct: 50 µL of four-fold diluted PPP, 50 μL of deficient plasma factor X, 10 μL of the examined compound; from tissue; host or cells: platelet-poor plasma (PPP), mixed with factor X-depleted plasma (Bio-Ksel)
T1 sequence (P00742 41-488): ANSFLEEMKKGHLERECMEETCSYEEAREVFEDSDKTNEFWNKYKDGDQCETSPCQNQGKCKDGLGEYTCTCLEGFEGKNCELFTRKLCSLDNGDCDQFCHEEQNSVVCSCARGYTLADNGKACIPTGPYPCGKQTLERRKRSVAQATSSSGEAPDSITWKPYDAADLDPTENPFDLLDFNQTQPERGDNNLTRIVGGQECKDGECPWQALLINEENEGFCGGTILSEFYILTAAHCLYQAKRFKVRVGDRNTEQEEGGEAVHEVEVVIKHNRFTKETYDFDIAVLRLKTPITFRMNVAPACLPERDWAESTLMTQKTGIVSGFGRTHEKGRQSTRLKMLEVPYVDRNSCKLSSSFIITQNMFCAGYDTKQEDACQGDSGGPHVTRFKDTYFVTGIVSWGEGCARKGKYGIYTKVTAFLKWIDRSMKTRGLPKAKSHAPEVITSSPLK
Method: The activity of FX was measured optically using deficient plasma factor X [75]. The content of each sample was as follows: 50 µL of four-fold diluted PPP, 50 μL of deficient plasma factor X, 10 μL of the examined compound, and 100 µL PT reagent. The control samples contained 10 μL of distilled water and methanol (1:1). The measurement of PT time was recorded using a CoagChrom-3003 coagulometer (Bio-Ksel, Grudziadz, Poland). The activity of factor X was counted using a calibration curve (R^2 = 0.999) performed on a calibrator diluted in the range 1:5–1:80 [76]. The variation in plasma coagulation time is proportional to the concentration and activity of factor X in the patient plasma treated with the tested compounds. The coefficient of variability for the method was calculated as CV = 1.80%. The reference values for factor X activity ranged from 77–131%.

CCCCS(=O)(=O)NC(N)=NC(=N)N(C)C [Compound 1] showed an APTT ([1]; 0.006 mM) of 35.12 ± 4.75 s, an INR ([1]; 0.006 mM) of 1.04 ± 0.19 and a PT ([1]; 0.006 mM) of 13.04 ± 2.41 s. It also gave a TT ([1]; 0.006 mM) of 14.03 ± 0.94 s, an APTT ([1]; 0.06 mM) of 33.36 ± 1.78 s and an INR ([1]; 0.06 mM) of 1.11 ± 0.23. The PT ([1]; 0.06 mM) was 12.78 ± 1.86 s, the TT ([1]; 0.06 mM) was 12.98 ± 1.08 s and the APTT ([1]; 0.3 mM) was 33.76 ± 2.53 s. For the same compound, the INR ([1]; 0.3 mM) was 1.08 ± 0.22, the PT ([1]; 0.3 mM) was 13.46 ± 2.71 s and the TT ([1]; 0.3 mM) was 13.90 ± 1.24 s. The APTT ([1]; 0.6 mM) was 34.68 ± 3.31 s, the INR ([1]; 0.6 mM) was 1.05 ± 0.19 and the PT ([1]; 0.6 mM) was 13.08 ± 2.36 s. It also gave a TT ([1]; 0.6 mM) of 12.64 ± 1.31 s, an APTT ([1]; 1.5 mM) of 34.68 ± 5.21 s and an INR ([1]; 1.5 mM) of 1.08 ± 0.23. The PT ([1]; 1.5 mM) was 13.48 ± 2.93 s, the TT ([1]; 1.5 mM) was 13.03 ± 0.86 s and the “Fmax—maximum clotting” value ([2]; 0.06 mM) was 73.71 ± 5.89 %T. For the same compound, the “Fvo—initial plasma clotting velocity” value ([2]; 0.06 mM) was 230.57 ± 34.38 %T/min, the “Lmax—maximum lysis” value ([2]; 0.06 mM) was 70.23 ± 10.26 %T and the “Lvo—initial clot fibrinolysis velocity” value ([2]; 0.06 mM) was 21.40 ± 6.16 %T/min. The “Sc—area under the curve of a stable clot formation” value (“Sc—area under the curve” below) ([2]; 0.06 mM) was 389.25 ± 160.80 %T x min, the “Sf—area under the clot formation curve” value ([2]; 0.06 mM) was 50.97 ± 7.65 %T x min and the “Sl (area under the fibrinolysis curve)” value ([2]; 0.06 mM) was 193.67 ± 107.75 %T x min. For the same compound, the “S—overall potential of clot formation and fibrinolysis (CLAUC)” value (“S—overall potential” for short) ([2]; 0.06 mM) was 633.89 ± 269.28 %T x min, the “Tc—clot stabilization time” value ([2]; 0.06 mM) was 324.86 ± 130.79 s and the “Tf—plasma clotting time” value ([2]; 0.06 mM) was 58.61 ± 9.61 s. The “Tl—fibrinolysis time” value ([2]; 0.06 mM) was 253.57 ± 104.13 s, the “Tt—thrombin time” value ([2]; 0.06 mM) was 18.97 ± 3.08 s and the “T—total time of the process of clot formation and fibrinolysis” value (from here on “T—total time”) ([2]; 0.06 mM) was 656.01 ± 236.60 s. The “Fmax—maximum clotting” value ([2]; 0.3 mM) was 71.97 ± 6.78 %T, the “Fvo—initial plasma clotting velocity” value ([2]; 0.3 mM) was 227.86 ± 37.81 %T/min and the “Lmax—maximum lysis” value ([2]; 0.3 mM) was 69.09 ± 10.62 %T. The “Lvo—initial clot fibrinolysis velocity” value ([2]; 0.3 mM) was 18.53 ± 7.15 %T/min, the “Sc—area under the curve” value ([2]; 0.3 mM) was 407.13 ± 154.90 %T x min and the “Sf—area under the clot formation curve” value ([2]; 0.3 mM) was 52.45 ± 10.08 %T x min. For the same compound, the “Sl (area under the fibrinolysis curve)” value ([2]; 0.3 mM) was 186.37 ± 104.97 %T x min, the “S—overall potential” value ([2]; 0.3 mM) was 645.95 ± 264.51 %T x min and the “Tc—clot stabilization time” value ([2]; 0.3 mM) was 347.71 ± 124.84 s. The “Tf—plasma clotting time” value ([2]; 0.3 mM) was 61.36 ± 11.85 s, the “Tl—fibrinolysis time” value ([2]; 0.3 mM) was 260.57 ± 95.60 s and the “Tt—thrombin time” value ([2]; 0.3 mM) was 16.81 ± 3.05 s. For the same compound, the “T—total time” value ([2]; 0.3 mM) was 686.46 ± 226.50 s, the “Fmax—maximum clotting” value ([2]; 0.6 mM) was 70.77 ± 5.62 %T and the “Fvo—initial plasma clotting velocity” value ([2]; 0.6 mM) was 217.71 ± 37.42 %T/min. For the same compound, the “Lmax—maximum lysis” value ([2]; 0.6 mM) was 69.47 ± 6.67 %T, the “Lvo—initial clot fibrinolysis velocity” value ([2]; 0.6 mM) was 18.64 ± 4.38 %T/min and the “Sc—area under the curve” value ([2]; 0.6 mM) was 388.20 ± 131.19 %T x min. For the same compound, the “Sf—area under the clot formation curve” value ([2]; 0.6 mM) was 53.53 ± 5.26 %T x min, the “Sl (area under the fibrinolysis curve)” value ([2]; 0.6 mM) was 178.97 ± 84.17 %T x min and the “S—overall potential” value ([2]; 0.6 mM) was 620.70 ± 216.54 %T x min. The “Tc—clot stabilization time” value ([2]; 0.6 mM) was 338.00 ± 114.76 s, the “Tf—plasma clotting time” value ([2]; 0.6 mM) was 63.63 ± 6.31 s and the “Tl—fibrinolysis time” value ([2]; 0.6 mM) was 267.71 ± 99.31 s. For the same compound, the “Tt—thrombin time” value ([2]; 0.6 mM) was 16.75 ± 4.87 s, the “T—total time” value ([2]; 0.6 mM) was 686.09 ± 216.29 s and the “Fmax—maximum clotting” value ([2]; 1.5 mM) was 70.21 ± 3.38 %T. The “Fvo—initial plasma clotting velocity” value ([2]; 1.5 mM) was 193.57 ± 47.31 %T/min, the “Lmax—maximum lysis” value ([2]; 1.5 mM) was 66.90 ± 8.86 %T and the “Lvo—initial clot fibrinolysis velocity” value ([2]; 1.5 mM) was 20.23 ± 6.46 %T/min. For the same compound, the “Sc—area under the curve” value ([2]; 1.5 mM) was 389.89 ± 172.66 %T x min, the “Sf—area under the clot formation curve” value ([2]; 1.5 mM) was 52.36 ± 6.58 %T x min and the “Sl (area under the fibrinolysis curve)” value ([2]; 1.5 mM) was 159.20 ± 87.92 %T x min. For the same compound, the “S—overall potential” value ([2]; 1.5 mM) was 602.52 ± 263.77 %T x min, the “Tc—clot stabilization time” value ([2]; 1.5 mM) was 344.29 ± 149.70 s and the “Tf—plasma clotting time” value ([2]; 1.5 mM) was 64.21 ± 9.03 s. The “Tl—fibrinolysis time” value ([2]; 1.5 mM) was 236.57 ± 80.20 s, the “Tt—thrombin time” value ([2]; 1.5 mM) was 21.60 ± 6.05 s and the “T—total time” value ([2]; 1.5 mM) was 666.67 ± 234.05 s. The “Factor X activity” value (factor X; 0.3 mM) was 107.60 ± 4.62%, the “Factor X activity” value (factor X; 0.6 mM) was 104.20 ± 4.97% and the “Factor X activity” value (factor X; 1.5 mM) was 97.40 ± 8.05%.
